For the test, the target named is T1, USP28 (His-tagged USP28-FL-mammalian) (Homo sapiens, UniProt Q96RU2).
T1 construct: Expression of USP28 (1-1077)-TEV-6*His (pTT5 vector); made in house; host or cells: Expi293f cells (pTT5 vector)
T1 sequence (Q96RU2 1-1077): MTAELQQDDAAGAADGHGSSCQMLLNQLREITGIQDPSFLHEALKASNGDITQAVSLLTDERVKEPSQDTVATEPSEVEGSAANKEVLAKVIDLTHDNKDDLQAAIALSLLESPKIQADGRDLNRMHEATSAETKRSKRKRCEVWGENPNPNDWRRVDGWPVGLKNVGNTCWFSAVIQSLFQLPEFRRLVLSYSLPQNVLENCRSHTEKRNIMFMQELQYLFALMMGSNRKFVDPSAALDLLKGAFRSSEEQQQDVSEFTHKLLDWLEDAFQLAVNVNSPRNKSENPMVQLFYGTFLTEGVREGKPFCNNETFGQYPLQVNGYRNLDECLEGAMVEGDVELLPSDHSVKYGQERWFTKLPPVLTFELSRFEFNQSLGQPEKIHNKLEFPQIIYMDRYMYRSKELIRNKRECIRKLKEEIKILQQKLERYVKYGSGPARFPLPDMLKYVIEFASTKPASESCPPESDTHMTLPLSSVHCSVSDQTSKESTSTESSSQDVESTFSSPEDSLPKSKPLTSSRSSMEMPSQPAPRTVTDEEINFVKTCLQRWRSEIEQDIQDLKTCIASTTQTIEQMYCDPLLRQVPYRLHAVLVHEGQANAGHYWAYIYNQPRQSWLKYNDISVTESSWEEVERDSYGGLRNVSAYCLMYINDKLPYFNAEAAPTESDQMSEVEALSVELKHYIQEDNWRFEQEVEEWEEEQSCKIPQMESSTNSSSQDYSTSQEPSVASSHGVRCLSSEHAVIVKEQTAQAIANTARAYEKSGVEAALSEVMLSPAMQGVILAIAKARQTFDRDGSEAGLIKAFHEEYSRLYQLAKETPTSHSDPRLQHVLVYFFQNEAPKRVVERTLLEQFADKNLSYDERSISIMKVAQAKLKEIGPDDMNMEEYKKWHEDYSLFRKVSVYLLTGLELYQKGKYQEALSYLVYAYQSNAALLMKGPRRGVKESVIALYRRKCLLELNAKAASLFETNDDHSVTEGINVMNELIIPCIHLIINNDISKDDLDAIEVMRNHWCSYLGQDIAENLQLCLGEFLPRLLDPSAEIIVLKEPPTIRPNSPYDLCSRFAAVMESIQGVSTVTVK
Briefly: Ubiquitin-Rhodamine 110 Assay for USP28 Activity, Example A-1(a). Format: biochemical. Particulars: Ubiquitin-Rhodamine 110 assay, Example A-1(a); read-out: USP28 A-1(a) IC50 range. A digest of the protocol:
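IC50 from 4-parameter logistic fit of percent inhibition versus no-enzyme and DMSO controls; compounds 25 μM to 1.3 nM, 3-fold. Ub-Rh110 cleavage (25 nM, below Km) by […] mammalian-expressed USP28-FL-His ran 45 min at room temperature, stopped with 10 mM citric acid, read ex 485/em 535.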
Turning to `COC[C@H]1CN(c2ccc3c(n2)CC[C@H](NC(=O)c2sc4nc(C)ccc4c2N)C3)C[C@@H]1N` [Example 327, 3-amino-N-[(6S)-2-[(3R,4S)-3-amino-4-(methoxymethyl)pyrrolidin-1-yl]-5,6,7,8-tetrahydroquinolin-6-yl]-6-methylthieno[2,3-b]pyridine-2-carboxamide], the IC50 was 50 to 200 nM.

For the compound `Cc1ccc2c(N)c(C(=O)N[C@H]3COc4cc(N5C[C@H](N)[C@@]6(CCCO6)C5)ccc4C3)sc2n1` [Example 310, 3-amino-N-[(3R)-7-[(5R,9S)-9-amino-1-oxa-7-azaspiro[4.4]nonan-7-yl]-3,4-dihydro-2H-1-benzopyran-3-yl]-6-methylthieno[2,3-b]pyridine-2-carboxamide], the IC50 lay in the range of 1 to 50 nM.

As for `COC[C@H]1CN(c2ccc3c(n2)CC[C@H](NC(=O)c2sc4nc(C)cc(C)c4c2N)C3)C[C@H]1N` [Example 297, 3-amino-N-[(6S)-2-[(3S,4S)-3-amino-4-(methoxymethyl)pyrrolidin-1-yl]-5,6,7,8-tetrahydroquinolin-6-yl]-4,6-dimethylthieno[2,3-b]pyridine-2-carboxamide], the IC50 fell in the range of 1 to 50 nM.

As for `Cc1ccc2c(N)c(C(=O)N[C@H]3COc4nc(N5C[C@H](OC(C)C)[C@@H](N)C5)ccc4C3)sc2n1` [Example 287, 3-amino-N-[(3R)-7-[(3S,4S)-3-amino-4-(propan-2-yloxy)pyrrolidin-1-yl]-2H,3H,4H-pyrano[2,3-b]pyridin-3-yl]-6-methylthieno[2,3-b]pyridine-2-carboxamide], the IC50 was 200 to 2000 nM.

As for `Cc1ccc2c(N)c(C(=O)N[C@H]3COc4cc(N5CCC6(CNC6)C5)ccc4C3)sc2n1` [Example 306, 3-amino-N-[(3R)-7-{2,6-diazaspiro[3.4]octan-6-yl}-3,4-dihydro-2H-1-benzopyran-3-yl]-6-methylthieno[2,3-b]pyridine-2-carboxamide], the IC50 fell in the range of 1 to 50 nM.

`N#Cc1c(N2CC3CCC(C2)N3)cc2c(c1F)C[C@@H](NC(=O)c1cnc3c(c1)[C@H]1C[C@H]1CN3)CO2` [Example 265, (6aR,7aS)-N-[(3R)-6-cyano-7-{3,8-diazabicyclo[3.2.1]octan-3-yl}-5-fluoro-3,4-dihydro-2H-1-benzopyran-3-yl]-5H,6H,6aH,7H,7aH-cyclopropa[c]1,8-naphthyridine-2-carboxamide]: the IC50 is 50 to 200 nM.

Turning to `Cc1ccc2c(N)c(C(=O)N[C@H]3COc4cc(N5CC6(C5)OCC[C@@H]6N)ccc4C3)sc2n1` [Example 338, 3-amino-N-[(3R)-7-[(8S)-8-amino-5-oxa-2-azaspiro[3.4]octan-2-yl]-3,4-dihydro-2H-1-benzopyran-3-yl]-6-methylthieno[2,3-b]pyridine-2-carboxamide], the IC50 was in the range of 50 to 200 nM.

`CO[C@H]1CN(c2ccc3c(c2)OC[C@H](NC(=O)c2sc4nc(C)ccc4c2N)C3)[C@@H](C)[C@@H]1N` [Example 333, 3-amino-N-[(3R)-7-[(2S,3S,4S)-3-amino-4-methoxy-2-methylpyrrolidin-1-yl]-3,4-dihydro-2H-1-benzopyran-3-yl]-6-methylthieno[2,3-b]pyridine-2-carboxamide]: the IC50 fell in the range of 1 to 50 nM.

Turning to `Cc1cnc2c(N)c(C(=O)N[C@H]3CCc4cc(N5C[C@H](OC(C)C)[C@@H](N)C5)ccc4C3)sc2n1` [Example 319, 7-amino-N-[(2S)-6-[(3S,4S)-3-amino-4-(propan-2-yloxy)pyrrolidin-1-yl]-1,2,3,4-tetrahydronaphthalen-2-yl]-3-methylthieno[2,3-b]pyrazine-6-carboxamide], the IC50 was 50 to 200 nM.

On to `COC[C@H]1CN(c2ccc3c(c2)OC[C@H](NC(=O)c2sc4nc(C)cc(C)c4c2N)C3)C[C@H]1N` [Example 276, 3-amino-N-[(3R)-7-[(3S,4S)-3-amino-4-(methoxymethyl)pyrrolidin-1-yl]-3,4-dihydro-2H-1-benzopyran-3-yl]-4,6-dimethylthieno[2,3-b]pyridine-2-carboxamide], for which the IC50 is 1 to 50 nM.

Take `Cc1ccc2c(N)c(C(=O)N[C@H]3COc4cc(N5C[C@@H](N)[C@@]6(CCCO6)C5)ccc4C3)sc2n1` [Example 308, 3-amino-N-[(3R)-7-[(5R,9R)-9-amino-1-oxa-7-azaspiro[4.4]nonan-7-yl]-3,4-dihydro-2H-1-benzopyran-3-yl]-6-methylthieno[2,3-b]pyridine-2-carboxamide]: the IC50 was 50 to 200 nM.

Turning to `CCO[C@H]1CN(c2ccc3c(c2)CC[C@H](NC(=O)c2sc4nc(C)ccc4c2N)C3)C[C@H]1N` [Example 268, 3-amino-N-[(2S)-6-[(3R,4S)-3-amino-4-ethoxypyrrolidin-1-yl]-1,2,3,4-tetrahydronaphthalen-2-yl]-6-methylthieno[2,3-b]pyridine-2-carboxamide], the IC50 was in the range of 50 to 200 nM.

On to `Cc1ccc2c(N)c(C(=O)N[C@H]3COc4cc(N5C[C@@H](N)[C@H](C(F)F)C5)ccc4C3)sc2n1` [Example 295, 3-amino-N-[(3R)-7-[(3S,4R)-3-amino-4-(difluoromethyl)pyrrolidin-1-yl]-3,4-dihydro-2H-1-benzopyran-3-yl]-6-methylthieno[2,3-b]pyridine-2-carboxamide], for which the IC50 was in the range of 1 to 50 nM.

Take `Cc1ccc2c(N)c(C(=O)N[C@H]3COc4cc(N5C[C@@H](N)[C@@H](F)C5)ccc4C3)sc2n1` (single isomer, unassigned) [Example 3-5]: the IC50 lay in the range of 1 to 50 nM.

Regarding `CO[C@@]1(C)CN(c2ccc3c(n2)OC[C@H](NC(=O)c2sc4nc(C)ccc4c2N)C3)C[C@@H]1N` [Example 325, 3-amino-N-[(3R)-7-[(3S,4S)-4-amino-3-methoxy-3-methylpyrrolidin-1-yl]-2H,3H,4H-pyrano[2,3-b]pyridin-3-yl]-6-methylthieno[2,3-b]pyridine-2-carboxamide], the IC50 was in the range of 50 to 200 nM.

For `COC[C@@H]1CN(c2cc(F)c3c(c2F)OC[C@H](NC(=O)c2sc4nc(C)cc(C)c4c2N)C3)C[C@@H]1N` [Example 277, 3-amino-N-[(3R)-7-[(3R,4R)-3-amino-4-(methoxymethyl)pyrrolidin-1-yl]-5,8-difluoro-3,4-dihydro-2H-1-benzopyran-3-yl]-4,6-dimethylthieno[2,3-b]pyridine-2-carboxamide], the IC50 is 1 to 50 nM.

As to `CN[C@H]1CN(c2ccc3c(n2)CC[C@H](NC(=O)c2sc4nc(C)ccc4c2N)C3)C[C@@H]1OC` [Example 311, 3-amino-N-[(6S)-2-[(3S,4S)-3-methoxy-4-(methylamino)pyrrolidin-1-yl]-5,6,7,8-tetrahydroquinolin-6-yl]-6-methylthieno[2,3-b]pyridine-2-carboxamide], the IC50 lay in the range of 50 to 200 nM.

In the case of `CO[C@@H]1[C@@H](N)CN(c2ccc3c(c2)OC[C@H](NC(=O)c2sc4nc(C)ccc4c2N)C3)[C@H]1C` [Example 283, 3-amino-N-[(3R)-7-[(2S,3R,4S)-4-amino-3-methoxy-2-methylpyrrolidin-1-yl]-3,4-dihydro-2H-1-benzopyran-3-yl]-6-methylthieno[2,3-b]pyridine-2-carboxamide], the IC50 is 1 to 50 nM.

With `CCOC[C@H]1CN(c2ccc3c(c2)OC[C@H](NC(=O)c2sc4nc(C)ccc4c2N)C3)C[C@H]1N` [Example 314, 3-amino-N-[(3R)-7-[(3S,4S)-3-amino-4-(ethoxymethyl)pyrrolidin-1-yl]-3,4-dihydro-2H-1-benzopyran-3-yl]-6-methylthieno[2,3-b]pyridine-2-carboxamide], the IC50 was 1 to 50 nM.

The term IC50 denotes the midpoint of a concentration-inhibition curve.

(Values after patent US11524966B1 (Valo Early Discovery, Inc., priority 2017, dated 2022).)
